In ChEMBL document CHEMBL5370562, “Synthesis and evaluation of Fmoc-amino esters and amides bearing a substrate like quaternary ammonium group as selective butyrylcholinesterase inhibitors” (Bioorg Med Chem Lett, 2023):
The source made the active and inactive calls. The calls are words filed in the database; no cut-off is given here.

Assays:
Cholinesterase [1] = molecular target: T1, Cholinesterase (Equus caballus, UniProt P81908); test: Inhibition of equine serum BuChE using S-butyrylthiocholine iodide as substrate and measured for 60 secs by Ellman's method; type: cell-free
[2] = molecular target: BuChE (butyrylcholinesterase) (Equus caballus, UniProt P81908); test: (§1) Substrate activity at equine serum BuChE assessed as compound hydrolysis at 10XIC50 measured after 1 hr by HPLC analysis; type: ADME, cell-free; settings: horse, equine serum butyrylcholinesterase (BuChE), read-out: Drug metabolism
[3] = Drug metabolism in sodium phosphate buffer assessed as compound hydrolysis at 10XIC50 measured after 24 hrs by HPLC analysis; type: ADME; settings: read-out: Drug metabolism
Trypsin (Homo sapiens) [4] = molecular target: T2, Trypsin (Homo sapiens) (UniProt P07477+P07478+P35030); test: Inhibition of trypsin (unknown origin) at 50 uM using 4-nitrophenyl acetate as substrate and measured for 1 min by spectrophotometric analysis relative to control; type: protein assay
Cholinesterase [5] = molecular target: T1, Cholinesterase; test: as §1; type: ADME, cell-free; settings: horse, serum, 1 h
[6] = molecular target: Cholinesterase (Equus caballus) (UniProt P81908); test: Reversible inhibition of equine serum BuChE assessed as residual enzyme activity at IC50 using S-butyrylthiocholine iodide as substrate preincubated with enzyme for 60 mins followed by 80-fold dilution with BTC and DTNB and measured for 1 min by spectrophotometric analysis relative to control; type: cell-free; settings: time 61.0 min
[7] = molecular target: Acetylcholinesterase (Electrophorus electricus) (UniProt O42275); test: Inhibition of electric eel AChE assessed as residual enzyme activity at 50 uM using acetylthiocholine iodide as substrate and measured for 1 min by spectrophotometrc analysis relative to control
Trypsin (Homo sapiens) [8] = molecular target: T2, Trypsin (Homo sapiens); test: Inhibition of trypsin (unknown origin) assessed as residual enzyme activity at 20 uM using 4-nitrophenyl acetate as substrate and measured for 1 min by spectrophotometric analysis relative to control; type: protein assay
[9] = molecular target: Cholinesterase (Equus caballus) (UniProt P81908); test: Inhibition of equine serum BuChE assessed as residual enzyme activity at 10 uM using S-butyrylthiocholine iodide as substrate and measured for 60 secs by spectrophotometric analysis relative to control; type: cell-free; settings: time 60.0 sec
[10] = molecular target: Acetylcholinesterase (Electrophorus electricus) (UniProt O42275); test: Inhibition of electric eel AChE at 50 uM using acetylthiocholine iodide as substrate and measured for 1 min by spectrophotometrc analysis relative to control
[11] = molecular target: Acetylcholinesterase (Electrophorus electricus) (UniProt O42275); test: Inhibition of electric eel AChE assessed as residual enzyme activity at 10 uM using acetylthiocholine iodide as substrate and measured for 1 min by spectrophotometrc analysis relative to control
[12] = molecular target: Cholinesterase (Equus caballus) (UniProt P81908); test: Inhibition of equine serum BuChE assessed as residual enzyme activity at 20 uM using S-butyrylthiocholine iodide as substrate and measured for 60 secs by spectrophotometric analysis relative to control; type: cell-free; settings: time 60.0 sec
[13] = molecular target: Cholinesterase (Equus caballus) (UniProt P81908); test: Inhibition of equine serum BuChE assessed as residual enzyme activity at 50 uM using S-butyrylthiocholine iodide as substrate and measured for 60 secs by spectrophotometric analysis relative to control; type: cell-free; settings: time 60.0 sec
[14] = molecular target: Acetylcholinesterase (Electrophorus electricus) (UniProt O42275); test: Inhibition of electric eel AChE at 100XIC50 for BuChE using acetylthiocholine iodide as substrate and measured for 1 min by spectrophotometrc analysis
Trypsin (Homo sapiens) [15] = molecular target: T2, Trypsin (Homo sapiens); test: Inhibition of trypsin (unknown origin) assessed as residual enzyme activity at 10 uM using 4-nitrophenyl acetate as substrate and measured for 1 min by spectrophotometric analysis relative to control; type: protein assay
Trypsin (Homo sapiens) [16] = molecular target: T2, Trypsin (Homo sapiens); test: Inhibition of trypsin (unknown origin) assessed as residual enzyme activity at 50 uM using 4-nitrophenyl acetate as substrate and measured for 1 min by spectrophotometric analysis relative to control; type: protein assay
[17] = molecular target: Acetylcholinesterase (Electrophorus electricus) (UniProt O42275); test: Inhibition of electric eel AChE assessed as residual enzyme activity at 20 uM using acetylthiocholine iodide as substrate and measured for 1 min by spectrophotometrc analysis relative to control
[18] = molecular target: Acetylcholinesterase (Electrophorus electricus) (UniProt O42275); test: Inhibition of electric eel AChE at 25XIC50 for BuChE using acetylthiocholine iodide as substrate and measured for 1 min by spectrophotometrc analysis relative to control
[19] = molecular target: Cholinesterase (Equus caballus) (UniProt P81908); test: Irreversible inhibition of equine serum BuChE assessed as residual enzyme activity at IC50 using S-butyrylthiocholine iodide as substrate preincubated with enzyme for 60 mins followed by 80-fold dilution with BTC and DTNB and measured for 1 min by spectrophotometric analysis relative to control; type: cell-free; settings: time 61.0 min

Chain of Acetylcholinesterase (Electrophorus electricus) (O42275 24-633 limits assumed): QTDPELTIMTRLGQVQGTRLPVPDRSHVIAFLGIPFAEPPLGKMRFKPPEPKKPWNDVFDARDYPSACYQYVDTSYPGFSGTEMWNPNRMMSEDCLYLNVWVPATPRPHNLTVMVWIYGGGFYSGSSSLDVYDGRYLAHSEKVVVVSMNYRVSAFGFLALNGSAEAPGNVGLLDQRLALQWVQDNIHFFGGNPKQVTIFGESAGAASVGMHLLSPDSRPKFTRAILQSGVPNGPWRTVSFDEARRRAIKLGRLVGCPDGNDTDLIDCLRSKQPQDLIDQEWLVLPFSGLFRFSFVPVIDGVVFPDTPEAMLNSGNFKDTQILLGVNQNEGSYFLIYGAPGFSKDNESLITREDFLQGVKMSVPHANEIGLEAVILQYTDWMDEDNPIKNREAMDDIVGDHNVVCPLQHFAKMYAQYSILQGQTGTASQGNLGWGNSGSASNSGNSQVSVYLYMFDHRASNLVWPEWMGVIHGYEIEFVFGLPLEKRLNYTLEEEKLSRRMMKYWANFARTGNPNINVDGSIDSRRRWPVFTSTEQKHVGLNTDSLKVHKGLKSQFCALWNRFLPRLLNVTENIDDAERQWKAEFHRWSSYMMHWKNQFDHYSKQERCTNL
T1 sequence (P81908 whole entry): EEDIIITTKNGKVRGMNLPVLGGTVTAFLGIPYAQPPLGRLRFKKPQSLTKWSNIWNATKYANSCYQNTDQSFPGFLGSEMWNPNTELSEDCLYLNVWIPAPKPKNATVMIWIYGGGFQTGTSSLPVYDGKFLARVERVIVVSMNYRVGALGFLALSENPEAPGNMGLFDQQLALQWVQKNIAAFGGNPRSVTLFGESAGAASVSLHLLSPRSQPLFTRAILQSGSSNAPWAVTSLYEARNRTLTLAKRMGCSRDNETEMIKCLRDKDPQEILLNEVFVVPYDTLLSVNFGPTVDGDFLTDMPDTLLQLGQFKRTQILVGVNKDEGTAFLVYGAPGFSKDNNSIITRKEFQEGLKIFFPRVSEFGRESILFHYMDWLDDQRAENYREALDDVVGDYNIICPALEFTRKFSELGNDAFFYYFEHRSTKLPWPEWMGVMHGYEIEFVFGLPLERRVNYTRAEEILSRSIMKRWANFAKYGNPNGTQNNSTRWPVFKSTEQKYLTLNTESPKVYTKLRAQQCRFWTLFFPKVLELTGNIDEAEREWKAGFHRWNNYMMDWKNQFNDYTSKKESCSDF
Chain of BuChE (butyrylcholinesterase) (P81908 whole entry): as above
Chain of Cholinesterase (Equus caballus) (P81908 whole entry): as above

O=C(N[C@@H](Cc1ccccc1)C(=O)O)OCC1c2ccccc2-c2ccccc21
IC50 (Cholinesterase [1]): 320 µM

C[C@H](NC(=O)OCC1c2ccccc2-c2ccccc21)C(=O)OCC[N+](C)(C)C
metabolised at 1 h [2]: ~25%
IC50 (Cholinesterase [1]): 5.1 µM
degraded at 24 h [3]: ~20%

CC(C)(C)OC(=O)NCCCC[C@H](NC(=O)OCC1c2ccccc2-c2ccccc21)C(=O)O
IC50 (Cholinesterase [1]): 41 µM

CC(C)(C)OC(=O)n1cc(C[C@H](NC(=O)OCC2c3ccccc3-c3ccccc32)C(=O)O)c2ccccc21
IC50 (Cholinesterase [1]): 23 µM

C[N+](C)(C)CCNC(=O)CNC(=O)OCC1c2ccccc2-c2ccccc21.[I-]
inhibition (Trypsin (Homo sapiens) [4]): < 5%
Drug metabolism (Cholinesterase [5]): Metabolite_Notdetected
Ratio [6]: 1
Ratio [7]: 0.84
IC50 (Cholinesterase [1]): 3.7 µM
Ratio (Trypsin (Homo sapiens) [8]): 0.96
Ratio [9]: 0.36
inhibition [10]: 10%
Ratio [11]: 0.99
Ratio [12]: 0.21
Ratio [13]: 0.07
inhibition [14]: Active
Ratio (Trypsin (Homo sapiens) [15]): 0.96
Ratio (Trypsin (Homo sapiens) [16]): 1.06
Ratio [17]: 0.95

C[C@H](NC(=O)OCC1c2ccccc2-c2ccccc21)C(=O)O
IC50 (Cholinesterase [1]): ≥ 200 µM

CC(C)(C)OC(=O)n1cc(C[C@H](NC(=O)OCC2c3ccccc3-c3ccccc32)C(=O)OCC[N+](C)(C)C)c2ccccc21
metabolised at 1 h [2]: ~25%
IC50 (Cholinesterase [1]): 0.4 µM
degraded at 24 h [3]: ~20%

CC(C)(C)OC(=O)NCCCC[C@H](NC(=O)OCC1c2ccccc2-c2ccccc21)C(=O)OCC[N+](C)(C)C
metabolised at 1 h [2]: ~25%
IC50 (Cholinesterase [1]): 0.5 µM
degraded at 24 h [3]: ~20%

CC(C)(C)OC(=O)n1cc(C[C@H](NC(=O)OCC2c3ccccc3-c3ccccc32)C(=O)NCC[N+](C)(C)C)c2ccccc21.[I-]
inhibition (Trypsin (Homo sapiens) [4]): < 5%
inhibition [18]: 10%
Drug metabolism (Cholinesterase [5]): Metabolite_Notdetected
Ratio [6]: 0.99
Ratio [7]: 0.68
IC50 (Cholinesterase [1]): 0.17 µM
Ratio (Trypsin (Homo sapiens) [8]): 0.93
Ratio [9]: 0.04
inhibition [10]: 30%
Ratio [11]: 0.96
Ratio [12]: 0.02
Ratio [13]: < 0.01
inhibition [14]: Active
Ratio (Trypsin (Homo sapiens) [15]): 1
Ratio (Trypsin (Homo sapiens) [16]): 0.94
Ratio [17]: 0.87

CC(C)C[C@H](NC(=O)OCC1c2ccccc2-c2ccccc21)C(=O)OCC[N+](C)(C)C
metabolised at 1 h [2]: ~50%
IC50 (Cholinesterase [1]): 0.7 µM
degraded at 24 h [3]: ~20%

CC(C)C[C@H](NC(=O)OCC1c2ccccc2-c2ccccc21)C(=O)NCC[N+](C)(C)C.[I-]
inhibition (Trypsin (Homo sapiens) [4]): < 5%
Drug metabolism (Cholinesterase [5]): Metabolite_Notdetected
Ratio [6]: 1.01
Ratio [7]: 0.92
IC50 (Cholinesterase [1]): 1.8 µM
Ratio (Trypsin (Homo sapiens) [8]): 0.99
Ratio [9]: 0.21
Ratio [11]: 1
Ratio [12]: 0.11
Ratio [13]: 0.03
inhibition [14]: Active
Ratio (Trypsin (Homo sapiens) [15]): 1.05
Ratio (Trypsin (Homo sapiens) [16]): 0.99
Ratio [17]: 1.01

C[N+](C)(C)CCOC(=O)CNC(=O)OCC1c2ccccc2-c2ccccc21
metabolised at 1 h [2]: ~100%
IC50 (Cholinesterase [1]): 6.7 µM
degraded at 24 h [3]: ~20%

O=S(=O)(F)Cc1ccccc1
Ratio [19]: 0.01
Ratio [9]: < 0.01
Ratio [11]: < 0.01
Ratio (Trypsin (Homo sapiens) [15]): < 0.01

CC(C)C[C@H](NC(=O)OCC1c2ccccc2-c2ccccc21)C(=O)O
IC50 (Cholinesterase [1]): 134 µM

O=C(O)CNC(=O)OCC1c2ccccc2-c2ccccc21
IC50 (Cholinesterase [1]): ≥ 200 µM

C[N+](C)(C)CCNC(=O)[C@H](Cc1ccccc1)NC(=O)OCC1c2ccccc2-c2ccccc21.[I-]
inhibition (Trypsin (Homo sapiens) [4]): < 5%
Drug metabolism (Cholinesterase [5]): Metabolite_Notdetected
Ratio [6]: 1.01
Ratio [7]: 0.89
IC50 (Cholinesterase [1]): 0.6 µM
Ratio (Trypsin (Homo sapiens) [8]): 1.01
Ratio [9]: 0.07
inhibition [10]: 10%
Ratio [11]: 0.97
Ratio [12]: 0.03
Ratio [13]: 0.02
inhibition [14]: Active
Ratio (Trypsin (Homo sapiens) [15]): 1.01
Ratio (Trypsin (Homo sapiens) [16]): 0.95
Ratio [17]: 0.99

C[C@H](NC(=O)OCC1c2ccccc2-c2ccccc21)C(=O)NCC[N+](C)(C)C.[I-]
inhibition (Trypsin (Homo sapiens) [4]): < 5%
Drug metabolism (Cholinesterase [5]): Metabolite_Notdetected
Ratio [6]: 1.02
Ratio [7]: 0.94
IC50 (Cholinesterase [1]): 7.5 µM
Ratio (Trypsin (Homo sapiens) [8]): 1.04
Ratio [9]: 0.44
Ratio [11]: 1
Ratio [12]: 0.31
Ratio [13]: 0.13
inhibition [14]: Active
Ratio (Trypsin (Homo sapiens) [15]): 1.01
Ratio (Trypsin (Homo sapiens) [16]): 0.98
Ratio [17]: 0.97

C[N+](C)(C)CCOC(=O)[C@H](Cc1ccccc1)NC(=O)OCC1c2ccccc2-c2ccccc21
metabolised at 1 h [2]: ~100%
IC50 (Cholinesterase [1]): 1 µM
degraded at 24 h [3]: ~20%

CC(C)(C)OC(=O)NCCCC[C@H](NC(=O)OCC1c2ccccc2-c2ccccc21)C(=O)NCC[N+](C)(C)C.[I-]
inhibition (Trypsin (Homo sapiens) [4]): < 5%
Drug metabolism (Cholinesterase [5]): Metabolite_Notdetected
Ratio [6]: 1.04
Ratio [7]: 0.81
IC50 (Cholinesterase [1]): 0.14 µM
Ratio (Trypsin (Homo sapiens) [8]): 0.95
Ratio [9]: 0.06
inhibition [10]: 20%
Ratio [11]: 1.01
Ratio [12]: 0.03
Ratio [13]: 0.01
inhibition [14]: Active
Ratio (Trypsin (Homo sapiens) [15]): 1
Ratio (Trypsin (Homo sapiens) [16]): 0.97
Ratio [17]: 1
